# Experimental data taken from patent US20250206738A1, “WRN INHIBITORS” (Nimbus Wadjet, Inc., priority 2023, published 2025).
# How the values were obtained:
# [1] = target: T1, human Werner helicase (WRN, Uniprot Q14191, amino acids 517-1235 with L1074F point mutation; WRN-BV08) (Homo sapiens, UniProt Q14191, L1074F); experiment: WRN (BV08) ADP-Glo assay; assay type: biochemical; settings: WRN-BV08 (aa 517-1235, L1074F); read-out: ADP-Glo_hWRN_IC50
# T1 construct: Uniprot Q14191, amino acids 517-1235 with L1074F point mutation; 8xHis (C, cleaved yes); TEV cleavage site (ENLYFQG) (C, cleaved yes); made in house; host or cells: Sf9 insect cells (baculovirus, pFastBac)
# T1 sequence (Q14191 with tags, fused parts or gaps L1074F): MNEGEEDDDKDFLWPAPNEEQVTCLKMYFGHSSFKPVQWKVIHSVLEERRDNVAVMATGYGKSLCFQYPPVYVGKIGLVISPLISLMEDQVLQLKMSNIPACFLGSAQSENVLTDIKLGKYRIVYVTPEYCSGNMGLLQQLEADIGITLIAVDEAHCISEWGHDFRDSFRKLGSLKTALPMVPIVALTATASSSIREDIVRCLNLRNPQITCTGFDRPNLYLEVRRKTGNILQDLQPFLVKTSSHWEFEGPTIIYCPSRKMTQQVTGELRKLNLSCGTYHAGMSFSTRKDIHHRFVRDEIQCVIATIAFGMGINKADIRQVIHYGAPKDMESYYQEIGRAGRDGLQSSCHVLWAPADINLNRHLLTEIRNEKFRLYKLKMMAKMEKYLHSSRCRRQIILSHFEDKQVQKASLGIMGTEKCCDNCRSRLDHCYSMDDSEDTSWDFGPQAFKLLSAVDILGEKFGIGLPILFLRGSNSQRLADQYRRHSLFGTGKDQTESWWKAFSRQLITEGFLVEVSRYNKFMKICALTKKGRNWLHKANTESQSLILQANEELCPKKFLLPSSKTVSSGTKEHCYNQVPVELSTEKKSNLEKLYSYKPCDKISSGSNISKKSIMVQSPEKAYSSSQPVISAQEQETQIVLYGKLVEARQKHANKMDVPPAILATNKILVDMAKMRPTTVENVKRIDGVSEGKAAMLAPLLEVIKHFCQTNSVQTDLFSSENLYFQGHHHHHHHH
# Procedure, shortened: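 ADP formed by untagged WRN helicase fragment (aa 517-1235, L1074F; 0.15 nM final) on 0.1 nM DNA duplex with […], 60 min at 25 °C after 15 min compound preincubation, pH 7.5 Bicine buffer. Luminescent ADP-Glo readout; IC50 from 4-parameter fit of % inhibition.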
# [2] = test system: p21 induction in HCT 116 cells; experiment: p21 induction in cells (In-Cell Western, p21/GAPDH ratio); assay type: cell-based; settings: Homo sapiens, HCT-116, 24 h, 24 h compound incubation, read-out: P21_EC50
# Procedure, shortened: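 p21 and GAPDH signals quantified by In-Cell Western after 24 h compound exposure of HCT 116 cells (11 concentrations, 2-fold steps, usual top 10 μM). Percent activation from p21/GAPDH ratio relative to DMSO (low) and internal WRN inhibitor (high) controls; curve fit gave EC50.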
IC50 [1] [µM],EC50 [2] [µM],Compound
0.005 to 0.05,0.5 to 2,"CCc1c(N2CCN(C(=O)c3cccc4ncoc34)[C@H]3CC[C@@H]32)c(=O)n2nc(C3=CCOCC3)nc2n1CC(=O)NC12CC(C(C)C)(C1)C2 [I-214, 2-(6-((1S,6S)-5-(benzo[d]oxazole-7-carbonyl)-2,5-diazabicyclo[4.2.0]octan-2-yl)-2-(3,6-dihydro-2H-pyran-4-yl)-5-ethyl-7-oxo-[1,2,4]triazolo[1,5-a]pyrimidin-4(7H)-yl)-N-(3-isopropylbicyclo[1.1.1]pentan-1-yl)acetamide]"
0.005 to 0.05,≤ 0.5,"CCc1c(N2CCN(C(=O)c3c(O)ccc4nc(C)oc34)CC2)c(=O)n2nc(-c3ccnc(OC)c3)nc2n1CC(=O)NC12CC(CC)(C1)C2 [I-215, 2-(5-ethyl-6-(4-(6-hydroxy-2-methylbenzo[d]oxazole-7-carbonyl)piperazin-1-yl)-2-(2-methoxypyridin-4-yl)-7-oxo-[1,2,4]triazolo[1,5-a]pyrimidin-4(7H)-yl)-N-(3-ethylbicyclo[1.1.1]pentan-1-yl)acetamide]"
0.005 to 0.05,> 5,"CCc1c(N2CCN(C(=O)c3ncccc3C(=O)O)CC2)c(=O)c2nn(-c3ccnc(OC)c3)nc2n1CC(=O)NC12CC(C3CC3)(C1)C2 [I-216, 2-(4-(4-(2-((3-cyclopropylbicyclo[1.1.1]pentan-1-yl)amino)-2-oxoethyl)-5-ethyl-2-(2-methoxypyridin-4-yl)-7-oxo-4,7-dihydro-2H-[1,2,3]triazolo[4,5-b]pyridin-6-yl)piperazine-1-carbonyl)nicotinic acid]"
0.005 to 0.05,≤ 0.5,"CCc1c(N2CCN(C(=O)c3c(OC)ncc(C)c3O)CC2)c(=O)n2nc(-c3ccnc(C)c3)nc2n1CC(=O)NC12CC(C(C)C)(C1)C2 [I-217, 2-(5-ethyl-6-(4-(4-hydroxy-2-methoxy-5-methylnicotinoyl)piperazin-1-yl)-2-(2-methylpyridin-4-yl)-7-oxo-[1,2,4]triazolo[1,5-a]pyrimidin-4(7H)-yl)-N-(3-isopropylbicyclo[1.1.1]pentan-1-yl)acetamide]"
0.005 to 0.05,0.5 to 2,"CCc1c(N2CCN(C(=O)c3c(O)ccc4ncoc34)[C@H]3CC[C@@H]32)c(=O)c2nc(N(C)C)cnc2n1CC(=O)NC12CC(C(C)C)(C1)C2 [I-218, 2-(2-(dimethylamino)-6-ethyl-7-((1S,6S)-5-(6-hydroxybenzo[d]oxazole-7-carbonyl)-2,5-diazabicyclo[4.2.0]octan-2-yl)-8-oxopyrido[2,3-b]pyrazin-5(8H)-yl)-N-(3-isopropylbicyclo[1.1.1]pentan-1-yl)acetamide]"
0.005 to 0.05,0.5 to 2,"CCc1c(N2CCN(C(=O)c3ncnc(C)c3O)CC2)c(=O)n2nc(-c3ccncc3)nc2n1CC(=O)NC12CC(C3CCC3)(C1)C2 [I-219, N-(3-cyclobutylbicyclo[1.1.1]pentan-1-yl)-2-(5-ethyl-6-(4-(5-hydroxy-6-methylpyrimidine-4-carbonyl)piperazin-1-yl)-7-oxo-2-(pyridin-4-yl)-[1,2,4]triazolo[1,5-a]pyrimidin-4(7H)-yl)acetamide]"
0.005 to 0.05,0.5 to 2,"CCc1c(N2CCN(C(=O)c3c(O)ccc4ncoc34)CC2)c(=O)n2nc(-c3ccnc(OC)c3)nc2n1CC(=O)NC12C3C4C1C1C2C3C41C(F)(F)F (stereo not shown) [I-220, 2-(5-ethyl-6-(4-(6-hydroxybenzo[d]oxazole-7-carbonyl)piperazin-1-yl)-2-(2-methoxypyridin-4-yl)-7-oxo-[1,2,4]triazolo[1,5-a]pyrimidin-4(7H)-yl)-N-(4-(trifluoromethyl)cuban-1-yl)acetamide]"
0.005 to 0.05,2 to 5,"CCc1c(N2CCN(C(=O)c3cc(C(C)(C)O)cnc3OC)[C@H]3CC[C@@H]32)c(=O)c2nn(C3=CCOCC3)nc2n1CC(=O)NC12CC(C3CC3)(C1)C2 [I-221, N-(3-cyclopropylbicyclo[1.1.1]pentan-1-yl)-2-(2-(3,6-dihydro-2H-pyran-4-yl)-5-ethyl-6-((1S,6S)-5-(5-(2-hydroxypropan-2-yl)-2-methoxynicotinoyl)-2,5-diazabicyclo[4.2.0]octan-2-yl)-7-oxo-2,7-dihydro-4H-[1,2,3]triazolo[4,5-b]pyridin-4-yl)acetamide]"
